These results are taken from patent US11166460B2, “α-amino acrylate microbicide, and preparation method therefor and uses thereof” (priority 2017, dated 2021).

One may read the EC90 as the concentration needed for an effect of 90%. As a reminder, the melting point is the temperature, or range, at which the solid turns liquid.

Series [1] concerns tobacco mosaic virus (TMV). In words: Anti-TMV curative activity (treatment mode), live friction inoculation on tobacco seedlings. Type of series: in vivo. The conditions noted are these: Tobacco mosaic virus, read-out: Anti-TMV activity, Curative effect (inhibition), 100 μg/mL, tobacco seedlings, checked on seventh day.
Series [2] deals with tobacco mosaic virus (TMV). In words: Anti-TMV inactivation activity (inactivation mode), compound mixed with TMV before inoculation of tobacco leaves. Type of series: in vivo. Particulars: Tobacco mosaic virus, read-out: Anti-TMV activity, Inactivation effect (inhibition).
Series [3] relates to tobacco mosaic virus (TMV). The series can be described thus: Anti-TMV protective activity (protection mode), live friction inoculation on tobacco seedlings. Type of series: in vivo. The conditions noted are these: Tobacco mosaic virus, read-out: Anti-TMV activity, Protection effect (inhibition).
Series [4] deals with tobacco mosaic virus (TMV). In words: Anti-TMV inducing activity (induction mode), tobacco seedlings. Type of series: in vivo. Particulars: Tobacco mosaic virus, read-out: Anti-TMV activity, Induction effect (inhibition), 100 μg/mL, tobacco seedlings.
The test system of a further series is Alternaria solani. In words: Fungicidal activity, fungi growth rate method, AS. Type of series: cell-based. The conditions noted are these: Alternaria solani, 50 μg/mL.
The next series concerns Botrytis cinerea. In words: Fungicidal activity, fungi growth rate method, BC. The conditions noted are these: Botrytis cinerea; 50 μg/mL; read-out: Fungicidal activity, inhibition, BC. Type of series: cell-based.
A further series concerns Cercospora arachidicola. The series can be described thus: Fungicidal activity, fungi growth rate method, CA. Type of series: cell-based. The conditions noted are these: Mycosphaerella arachidis; 50 μg/mL; read-out: Fungicidal activity, inhibition, CA.
In a further series the test system is wheat Gibberella zeae. The series can be described thus: microbe, parasite or virus in culture. The conditions noted are these: Fusarium graminearum. Type of series: cell-based.
The test system of series [5] is Phytophthora infestans (Mont) de Bary. The series can be described thus: microbe, parasite or virus in culture. Type of series: cell-based. The conditions noted are these: Phytophthora infestans, read-out: Fungicidal activity, inhibition, PI.
A further series has as its system Physalospora piricola. The series can be described thus: Fungicidal activity, fungi growth rate method, PP. Type of series: cell-based. The conditions noted are these: 50 μg/mL; read-out: Fungicidal activity, inhibition, PP.
The next series has as its system Pellicularia sasakii. In words: Fungicidal activity, fungi growth rate method, PS. Type of series: cell-based. The conditions noted are these: 50 μg/mL; read-out: Fungicidal activity, inhibition, PS.
For the next series, the system named is Rhizoctonia cerealis. In words: Fungicidal activity, fungi growth rate method, RC. Type of series: cell-based. The conditions noted are these: Ceratobasidium cereale; 50 μg/mL; read-out: Fungicidal activity, inhibition, RC.
The next series has as its system Sclerotinia sclerotiorum. The series can be described thus: microbe, parasite or virus in culture. Type of series: cell-based. The conditions noted are these: Sclerotinia sclerotiorum; for EC90: read-out: EC90 against S. sclerotiorum in vitro; for inhibition at 50 µg/mL: 50 μg/mL.
Setting [6] is: read-out: Fungicidal activity, inhibition, AS.
Where [7] appears, read: read-out: Fungicidal activity, inhibition, GZ.
Setting [8] is: read-out: Fungicidal activity, inhibition, SS.
Setting [9] is: read-out: Fungicidal activity (inhibition) against SS: Sclerotinia sclerotiorum.

Molecules are shown by their SMILES. Converted amounts (≈) assume the structure as drawn. Like-named read-outs stand apart in the source and are kept apart here.

On to `O=C(N/C(=C\c1ccc(Cl)cc1)C(=O)N1CCC(O)(c2ccc(Br)cc2)CC1)c1ccccc1` [Compound 18, (Z)-N-[1-[[4-(4-bromophenyl)-4-hydroxy-1-piperidinyl]carbonyl]-2-(4-chlorophenyl)ethenyl]benzamide], for which the melting point was in the range of 210 to 212 °C. For the same molecule, in series [1], the inhibition at 100 µg/mL turned out to be 0%. Besides, the inhibition at 100 µg/mL in series [2] turned out to be 27%. The inhibition at 100 µg/mL in series [3] was found to be 39%. Also, the inhibition at 100 µg/mL in series [4] stood at 34%. Moreover, in the series with Alternaria solani (read-out: Fungicidal activity (inhibition) against AS: Alternaria solani), the inhibition at 50 µg/mL worked out at 43%. Also, the inhibition at 50 µg/mL in the series with Alternaria solani (setting [6]) worked out at 43%. Further, in the series on Botrytis cinerea, the inhibition at 50 µg/mL worked out at 34%. In the series on Cercospora arachidicola, the inhibition at 50 µg/mL came to 30%. Also, the inhibition at 50 µg/mL in the series on wheat Gibberella zeae (setting [7]) worked out at 49%. For the same molecule, the inhibition at 50 µg/mL in [5] amounted to 31%. The inhibition at 50 µg/mL with Physalospora piricola came out at 27%. Moreover, in the series with Pellicularia sasakii, the inhibition at 50 µg/mL amounted to 29%. Besides, the inhibition at 50 µg/mL in the series with Rhizoctonia cerealis stood at 29%. In the series on Sclerotinia sclerotiorum, the EC90 amounted to 381 µg/mL (≈ 706 µM). The inhibition at 50 µg/mL in the series with Sclerotinia sclerotiorum (setting [8]) is 93%.

In the case of `O=C(N/C(=C\c1ccc(Br)cc1)C(=O)N1CCC(O)(c2ccc(Br)cc2)CC1)c1ccccc1` [Compound 19, (Z)-N-[1-[[4-(4-bromophenyl)-4-hydroxy-1-piperidinyl]carbonyl]-2-(4-bromophenyl)ethenyl]benzamide], the melting point was in the range of 147 to 148 °C. Besides, in [1], the inhibition at 100 µg/mL is 0%. For the same molecule, the inhibition at 100 µg/mL in series [2] was 0%. Moreover, the inhibition at 100 µg/mL in [3] turned out to be 46%. In [4], the inhibition at 100 µg/mL came out at 0%. For the same molecule, the inhibition at 50 µg/mL with Alternaria solani (setting [6]) was 21%. Besides, the inhibition at 50 µg/mL with Botrytis cinerea came out at 4%. For the same molecule, the inhibition at 50 µg/mL with Cercospora arachidicola came to 3%. Besides, the inhibition at 50 µg/mL in the series on wheat Gibberella zeae (setting [7]) was determined as 5%. Besides, in [5], the inhibition at 50 µg/mL was found to be 27%. Further, the inhibition at 50 µg/mL in the series with Physalospora piricola is 16%. In the series on Pellicularia sasakii, the inhibition at 50 µg/mL was 12%. In the series on Rhizoctonia cerealis, the inhibition at 50 µg/mL stood at 19%. In the series with Sclerotinia sclerotiorum (setting [8]), the inhibition at 50 µg/mL worked out at 44%.

`O=C(N/C(=C\c1ccc(C(F)(F)F)cc1)C(=O)N1CCC(O)(c2ccc(Br)cc2)CC1)c1ccccc1` [Compound 20, (Z)-N-[1-[[4-(4-bromophenyl)-4-hydroxy-1-piperidinyl]carbonyl]-2-(4-trifluoromethylphenyl)ethenyl]benzamide] had a melting point of 137 to 139 °C. Further, in series [1], the inhibition at 100 µg/mL is 0%. The inhibition at 100 µg/mL in series [2] amounted to 0%. The inhibition at 100 µg/mL in series [3] was 52%. In addition, the inhibition at 100 µg/mL in series [4] is 53%. Moreover, the inhibition at 50 µg/mL in the series on Alternaria solani (setting [6]) came to 17%. The inhibition at 50 µg/mL in the series on Botrytis cinerea stood at 7%. For the same molecule, the inhibition at 50 µg/mL in the series on Cercospora arachidicola was 16%. For the same molecule, in the series with wheat Gibberella zeae (setting [7]), the inhibition at 50 µg/mL turned out to be 7%. Further, the inhibition at 50 µg/mL in [5] was 21%. For the same molecule, the inhibition at 50 µg/mL with Physalospora piricola was 10%. In the series with Pellicularia sasakii, the inhibition at 50 µg/mL came out at 21%. In addition, the inhibition at 50 µg/mL in the series with Rhizoctonia cerealis was determined as 19%. Further, in the series with Sclerotinia sclerotiorum (setting [8]), the inhibition at 50 µg/mL stood at 67%.

Consider `O=C(N/C(=C\c1cccc(C(F)(F)F)c1)C(=O)N1CCC(O)(c2ccc(Br)cc2)CC1)c1ccccc1` [Compound 21, (Z)-N-[1-[[4-(4-bromophenyl)-4-hydroxy-1-piperidinyl]carbonyl]-2-(3-trifluoromethylphenyl)ethenyl]benzamide], for which the melting point was 118 to 120 °C. In addition, the inhibition at 100 µg/mL in series [1] was found to be 35%. Besides, the inhibition at 100 µg/mL in [2] amounted to 58%. For the same molecule, the inhibition at 100 µg/mL in series [3] amounted to 46%. Further, the inhibition at 100 µg/mL in [4] is 9%. For the same molecule, the inhibition at 50 µg/mL in the series on Alternaria solani (setting [6]) is 12%. For the same molecule, in the series on Botrytis cinerea, the inhibition at 50 µg/mL stood at 8%. Further, in the series on Cercospora arachidicola, the inhibition at 50 µg/mL came out at 25%. In the series with wheat Gibberella zeae (setting [7]), the inhibition at 50 µg/mL was determined as 19%. The inhibition at 50 µg/mL in series [5] was determined as 2%. The inhibition at 50 µg/mL with Physalospora piricola is 8%. Moreover, in the series with Pellicularia sasakii, the inhibition at 50 µg/mL came out at 17%. Also, the inhibition at 50 µg/mL with Rhizoctonia cerealis worked out at 24%. Further, the inhibition at 50 µg/mL in the series with Sclerotinia sclerotiorum (setting [9]) is 60 to 80%. For the same molecule, in the series on Sclerotinia sclerotiorum (setting [8]), the inhibition at 50 µg/mL is 75%.

In turn, `O=C(N/C(=C\c1ccccc1C(F)(F)F)C(=O)N1CCC(O)(c2ccc(Br)cc2)CC1)c1ccccc1` [Compound 22] registered a melting point of 149 to 151 °C. For the same molecule, the inhibition at 100 µg/mL in [1] stood at 59%. In series [2], the inhibition at 100 µg/mL was 58%. Further, the inhibition at 100 µg/mL in series [3] turned out to be 0%. In addition, the inhibition at 100 µg/mL in series [4] is 22%. For the same molecule, in the series on Alternaria solani (setting [6]), the inhibition at 50 µg/mL was determined as 12%. For the same molecule, the inhibition at 50 µg/mL with Botrytis cinerea came out at 8%. Further, the inhibition at 50 µg/mL in the series on Cercospora arachidicola was found to be 25%. The inhibition at 50 µg/mL in the series on wheat Gibberella zeae (setting [7]) was 28%. Further, in [5], the inhibition at 50 µg/mL was 5%. In addition, in the series on Physalospora piricola, the inhibition at 50 µg/mL amounted to 8%. Moreover, in the series with Pellicularia sasakii, the inhibition at 50 µg/mL came out at 15%. Also, the inhibition at 50 µg/mL in the series with Rhizoctonia cerealis was determined as 26%. For the same molecule, the EC90 with Sclerotinia sclerotiorum stood at 199 µg/mL (≈ 347 µM). Further, in the series on Sclerotinia sclerotiorum (setting [9]), the inhibition at 50 µg/mL is 100%. The inhibition at 50 µg/mL in the series on Sclerotinia sclerotiorum (setting [8]) turned out to be 100%.

As for `O=C(N/C(=C\c1ccc([N+](=O)[O-])cc1)C(=O)N1CCC(O)(c2ccc(Br)cc2)CC1)c1ccccc1` [Compound 23, (Z)-N-[1-[[4-(4-bromophenyl)-4-hydroxy-1-piperidinyl]carbonyl]-2-(4-nitrophenyl)ethenyl]benzamide], the melting point was in the range of 186 to 188 °C. Also, the inhibition at 100 µg/mL in [1] worked out at 0%. Further, the inhibition at 100 µg/mL in [2] turned out to be 4%. For the same molecule, the inhibition at 100 µg/mL in series [3] was determined as 59%. In series [4], the inhibition at 100 µg/mL amounted to 11%. In addition, the inhibition at 50 µg/mL in the series with Alternaria solani (setting [6]) came to 25%. In addition, the inhibition at 50 µg/mL in the series on Botrytis cinerea is 7%. Moreover, the inhibition at 50 µg/mL with Cercospora arachidicola was 10%. Also, the inhibition at 50 µg/mL with wheat Gibberella zeae (setting [7]) was determined as 19%. Moreover, the inhibition at 50 µg/mL in series [5] came out at 17%. For the same molecule, the inhibition at 50 µg/mL with Physalospora piricola is 10%. Besides, in the series with Pellicularia sasakii, the inhibition at 50 µg/mL amounted to 33%. Further, the inhibition at 50 µg/mL with Rhizoctonia cerealis worked out at 26%. The inhibition at 50 µg/mL with Sclerotinia sclerotiorum (setting [8]) amounted to 67%.

The molecule `O=C(N/C(=C\c1c[nH]cn1)C(=O)N1CCC(O)(c2ccc(Br)cc2)CC1)c1ccccc1` [Compound 26, (Z)-N-[1-[[4-(4-bromophenyl)-4-hydroxy-1-piperidinyl]carbonyl]-2-(4-imidazole)ethenyl]benzamide] came in with a melting point of 176 to 178 °C. For the same molecule, in series [1], the inhibition at 100 µg/mL stood at 0%. For the same molecule, the inhibition at 100 µg/mL in series [2] amounted to 21%. Besides, the inhibition at 100 µg/mL in [3] was 1%. For the same molecule, the inhibition at 100 µg/mL in [4] was determined as 1%. In the series on Alternaria solani (setting [6]), the inhibition at 50 µg/mL worked out at 21%. Besides, the inhibition at 50 µg/mL in the series on Botrytis cinerea is 14%. Further, in the series with Cercospora arachidicola, the inhibition at 50 µg/mL came out at 16%. In the series with wheat Gibberella zeae (read-out: Fungicidal activity (inhibition) against GZ: wheat Gibberella zeae), the inhibition at 50 µg/mL was determined as 77%. Also, the inhibition at 50 µg/mL with wheat Gibberella zeae (setting [7]) was determined as 2%. In addition, in series [5], the inhibition at 50 µg/mL is 19%. Further, in the series with Physalospora piricola, the inhibition at 50 µg/mL came to 7%. Moreover, the inhibition at 50 µg/mL with Pellicularia sasakii came to 0%. In the series with Rhizoctonia cerealis, the inhibition at 50 µg/mL is 16%. Also, the inhibition at 50 µg/mL in the series on Sclerotinia sclerotiorum (setting [9]) lay in the range of 60 to 80%. Moreover, the inhibition at 50 µg/mL in the series on Sclerotinia sclerotiorum (setting [8]) amounted to 78%.
